Measurements taken from US20030181446A1, “Novel N-acylated heterocycles” (Recordati S.A., priority 2001, published 2003).

Key:
[1] = target: T1, human 5HT1A-serotonergic receptor (Homo sapiens, UniProt P08908); assay: Radioligand binding to recombinant 5-HT1A receptors; settings: 1 nM [3H]8-OH-DPAT, membranes of HeLa cells transfected with human 5HT1A receptor; Ki from IC50 by Cheng & Prusoff; read-out: Binding affinity for 5HT1A receptors, Ki
T1 construct: expressed in transfected cells; cell membranes
T1 sequence (P08908 1-422): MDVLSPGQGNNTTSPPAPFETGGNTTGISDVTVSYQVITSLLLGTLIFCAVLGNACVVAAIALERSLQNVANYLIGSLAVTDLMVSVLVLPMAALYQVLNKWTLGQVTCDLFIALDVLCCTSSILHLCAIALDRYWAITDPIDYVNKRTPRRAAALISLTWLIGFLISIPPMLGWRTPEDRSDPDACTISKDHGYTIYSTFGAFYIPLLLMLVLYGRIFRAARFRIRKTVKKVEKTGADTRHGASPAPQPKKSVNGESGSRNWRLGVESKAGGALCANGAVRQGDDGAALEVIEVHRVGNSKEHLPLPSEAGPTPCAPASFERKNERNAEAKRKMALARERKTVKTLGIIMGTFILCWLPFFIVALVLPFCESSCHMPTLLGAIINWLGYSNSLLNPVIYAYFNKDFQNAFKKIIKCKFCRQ
Procedure: Genomic clone G-21 coding for the human 5HT1A-serotonergic receptor was stably transfected in a human cell line (HeLa). HeLa cells were grown as monolayers in Dulbecco's modified Eagle medium (DMEM), containing 10% foetal bovine serum, gentamicin ([…]) and 5% carbon dioxide, at 37° C. The cells were detached from the growth flask at 95% confluence by a cell scraper and were lysed in cold 5 mM Tris and 5 mM EDTA buffer (pH 7.4). The homogenates were centrifuged at 40000×g×20 minutes and the pellets were resuspended in a small volume of cold 5 mM Tris and 5 mM EDTA buffer (pH 7.4) and immediately frozen and stored at −70° C. until use. On the day of experiment, the cell membranes were resuspended in incubation buffer: 50 mM Tris HCl (pH 7.4), 2.5 mM MgCl2, […] (Fargin et al., Nature 335, 358-360, 1988). […] Non-specific binding was determined in the presence of 10 μM 5-HT. […]
The affinity of the tested compounds was evaluated as inhibition of specific binding of the radioligand to 5-HT1A receptors (IC50) by using the non-linear curve-fitting program Allfit (De Lean et al., Am. J. Physiol. 235, E97-E102 (1978). The IC50 value was converted to an affinity constant (Ki) by the equation of Cheng & Prusoff (Cheng Y. C., Prusoff W. H., Biochem. Pharmacol. 22, 3099-3108 (1973)).

[2] = tested on: bladder volume capacity (BVC) and micturition pressure (MP); assay: Effect on cystometric parameters in conscious rats after oral administration; assay type: in vivo, rat; settings: 3 mg/kg p.o., 1-5 h after treatment, versus vehicle
Procedure: Male Sprague-Dawley rats [Crl: CD° (SD) BR] of 300-400 g supplied by Charles River Italia were used. The animals were housed with free access to food and water and maintained on a forced 12-hour-light/12-hour-dark cycle at 22-24° C. of temperature, except during the experiment. To quantify urodynamic parameters in conscious rats, cystometrographic studies were performed according to the procedure previously reported (Guarneri et al., Pharmacol. Res. 24: 175, 1991).
Briefly, the rats were anaesthetised by intraperitoneal administration of 3 ml/kg of Equithensin solution (pentobarbital 30 mg/kg and chloral hydrate 125 mg/kg) and placed in a supine position. An approximately-10-mm-long midline incision was made in the shaved and cleaned abdominal wall. The urinary bladder was gently freed from adhering tissues, emptied and then cannulated via an incision in the bladder body, using a polyethylene cannula (0.58-mm internal diameter, 0.96-mm external diameter) which was permanently sutured with silk thread. The cannula was exteriorised through a subcutaneous tunnel in the retroscapular area, where it was connected to a plastic adapter in order to avoid the risk of removal by the animal. For drug testing, the rats were utilised one day after implantation.
On the day of the experiment, the rats were placed in modified Bollman cages, i.e. restraining cages that were large enough to permit the rats to adopt a normal crouched posture, but narrow enough to prevent turning around. […] The intraluminal-pressure signal during infusion of saline into the bladder was continuously recorded on a polygraph (Rectigraph-8K San-ei with BM614/2 amplifier from Biomedica Mangoni) and, from the cystometrogram, two urodynamic parameters were evaluated: bladder volume capacity (BVC) and micturition pressure (MP). […] Basal BVC and MP values were evaluated as mean of the values observed in the cystometrograms recorded in an initial period of 30-60 minutes. […] The bladder infusion restarted and changes in BVC and MP were evaluated from the mean values obtained in the cystometrograms observed during 1, 2, 3, 4 and 5 hours after treatment. […]
All data were expressed as mean±standard error. Time-course data were analysed by S.A.S./STAT software, version 6.12. The difference between vehicle and active-treatment effect was evaluated by: General Linear Model Procedure—Repeated Measures Analysis of Variance: Univariate test of Hypotheses for within Subject Effects—Analysis of Variance of Contrast Variables. […]

[3] = tested on: rhythmic bladder-voiding contractions; assay: Effects on rhythmic bladder-voiding contractions induced by bladder filling in anaesthetised rats; assay type: in vivo, rat; settings: intravenous administration
Procedure: Female Sprague-Dawley rats weighing 225-275 g (Crl: CDo Br, Charles River Italia) were used. The animals were housed with free access to food and water and maintained on a forced 12-hour alternating light-dark cycle at 22-24° C. for at least one week, except during the experiment. The activity on rhythmic bladder voiding contractions was evaluated according to the method of Dray (Dray J., Pharmacol. Methods, 13:157, 1985), with some modifications as in Guarneri (Guarneri, Pharmacol. Res. 27:173, 1993). Briefly, the rats were anaesthetised by subcutaneous injection of 1.25 g/kg (5 ml/kg) urethane, after which the urinary bladder was catheterised via the urethra using PE 50 polyethylene tubing filled with physiological saline. […]
From the cystometrogram, the number of contractions recorded 15 minutes before (basal values) and after treatment, as well as the mean amplitude of these contractions (mean height of the peaks in mmHg), was evaluated.
Since most compounds produced an effect that was relatively rapid in onset and led to a complete cessation of bladder contractions, bioactivity was conveniently estimated by measuring the duration of bladder quiescence (i.e. the length of the time during which no contractions occurred). The number of tested animals showing a reduction in the number of contractions higher than 30% of that observed in the basal period was recorded too. […]

| Compound | Ki [1] [nM] | bladder volume capacity (BVC) change (in words) [2] | micturition pressure (MP) change (in words) [2] | cessation of bladder contractions (in words) [3] | effect on amplitude of the contractions (in words) [3] |
| --- | --- | --- | --- | --- | --- |
| 1-(2-Ethylbutanoyl-1,2,3,4-tetrahydroquinoline-2-ylmethyl)-4-(4-indolyl)-piperazine [Example 24A] | 12.9 | – | – | – | – |
| O=C(C1CCCCC1)N1c2ccccc2CCC1CN1CCN(c2cccc3[nH]ccc23)CC1 (racemic) [Example 1, 1-(1-Cyclohexanecarbonyl-1,2,3,4-tetrahydroquinoline-2-ylmethyl)-4-(4-indolyl)piperazine] | – | effective in increasing the bladder volume capacity | without significant effects on micturition pressure | – | – |
| CC(C)Oc1cc(Cl)ccc1N1CCN(CC2CCc3ccccc3N2C(=O)C2CCCCC2)CC1 (centres unmarked) [Example 60A] | 10.1 | – | – | – | – |
| CCN(CC)CC#CCOC(=O)C(O)(c1ccccc1)C1CCCCC1 (centres unmarked) [Oxybutynin, oxybutynin] | – | slight, not-significant increase of BVC | greatly reduced the micturition pressure values | does not cause cessation of bladder contractions | only decreased the amplitude of the contractions in a dose-related manner |
